Converted amounts (≈) assume the structure as drawn. Read-outs that look alike come from different tables or passages of the source.
Assays:
E. coli GC 2236 = test: MIC, broth microdilution; conditions: Escherichia coli, GC2236, E. coli GC 2236
E. coli GC 2231 = test: MIC, broth microdilution; conditions: Escherichia coli, GC2231, E. coli GC 2231
E. coli GC 2235 = test: MIC, broth microdilution; conditions: Escherichia coli, GC2235, E. coli GC 2235
E. coli GC 2232 = test: MIC, broth microdilution; conditions: Escherichia coli, GC2232, E. coli GC 2232
E. coli GC 2234 = test: MIC, broth microdilution; conditions: Escherichia coli, GC2234, E. coli GC 2234
E. coli GC 4559 = test: MIC, broth microdilution; conditions: Escherichia coli, GC4559, E. coli GC 4559
S. typhimurium GC 2172 = test: MIC, broth microdilution; conditions: Salmonella enterica, TYPHIMURIUM, S. typhimurium GC 2172
S. aureus GC 6466 = test: MIC, broth microdilution; conditions: Staphylococcus aureus, GC6466, S. aureus GC 6466
S. aureus GC 4536 = test: MIC, broth microdilution; conditions: Staphylococcus aureus, GC4536, S. aureus GC 4536
S. aureus GC 2216 = test: MIC, broth microdilution; conditions: Staphylococcus aureus, GC2216, S. aureus GC 2216
E. faecalis GC 4555 = test: MIC, broth microdilution; conditions: Enterococcus faecalis, GC4555, E. faecalis GC 4555
E. faecalis GC 2242 = test: MIC, broth microdilution; conditions: Enterococcus faecalis, GC2242, E. faecalis GC 2242
E. faecium GC 4556 = test: MIC, broth microdilution; conditions: Enterococcus faecium, GC4556, E. faecium GC 4556
S. pneumoniae* GC 4465 = test: MIC, broth microdilution; conditions: Streptococcus pneumoniae, S. pneumoniae* GC 4465
S. pneumoniae+ GC 4465 = test: MIC, broth microdilution; conditions: Streptococcus pneumoniae, S. pneumoniae+ GC 4465
S. pyogenes GC 4563 = test: MIC, broth microdilution; conditions: Streptococcus pyogenes, GC4563, S. pyogenes GC 4563
S. agalactiae GC 4564 = test: MIC, broth microdilution; conditions: Streptococcus agalactiae, GC4564, S. agalactiae GC 4564
E. coli = test: Range of MIC for E. coli strains; conditions: Escherichia coli
Staph. = test: Range of MIC for Staph. strains, including MRSA; conditions: Staphylococcus aureus
Staph. aureus Smith = test: In vivo activity (oral, iv; ED50) against Staph. aureus Smith in mice
Experimental: Representative examples of compounds of Formula I were tested for the oral efficacy using S. aureus Smith in mice.

Q: `CCCCN(CC(=O)Nc1cc(N(C)C)c2c(c1O)C(=O)C1=C(O)[C@]3(O)C(=O)C(C(N)=O)=C(O)[C@@H](N(C)C)[C@@H]3C[C@@H]1C2)C(=O)OCOC(=O)c1ccc(F)cc1` [Example 4, ({[(2-{[(5aR,6aS,7S,10aS)-9-(aminocarbonyl)-4,7-bis(dimethylamino)-1,8,10a,11-tetrahydroxy-10,12-dioxo-5,5a,6,6a,7,10,10a,12-octahydrotetracen-2-yl]amino}-2-oxoethyl)(butyl)amino]carbonyl}oxy)methyl 4-fluorobenzoate] was tested. Which MIC (E. coli GC 2236; Mouse Serum pre-incubation) did it give?
A: The MIC was 1 µg/mL (≈ 1.28 µM).

Q: What about the MIC (E. coli GC 2236; Water pre-incubation) of the same compound?
A: Its MIC is 64 µg/mL (≈ 81.9 µM).

Q: And the MIC (E. coli GC 2231; Mouse Serum pre-incubation)?
A: Its MIC is 1 µg/mL (≈ 1.28 µM).

Q: What about the MIC (E. coli GC 2231; Water pre-incubation) of the same compound?
A: Its MIC is 64 µg/mL (≈ 81.9 µM).

Q: What about the MIC (E. coli GC 2235; Mouse Serum pre-incubation) of the same compound?
A: The MIC was 1 µg/mL (≈ 1.28 µM).

Q: What about the MIC (E. coli GC 2235; Water pre-incubation) of the same compound?
A: Its MIC is 64 µg/mL (≈ 81.9 µM).

Q: What about the MIC (E. coli GC 2232; Mouse Serum pre-incubation) of the same compound?
A: The MIC was 1 µg/mL (≈ 1.28 µM).

Q: What about the MIC (E. coli GC 2232; Water pre-incubation) of the same compound?
A: The MIC was 64 µg/mL (≈ 81.9 µM).

Q: What about the MIC (E. coli GC 2234; Mouse Serum pre-incubation) of the same compound?
A: The MIC was 1 µg/mL (≈ 1.28 µM).

Q: What about the MIC (E. coli GC 2234; Water pre-incubation) of the same compound?
A: Its MIC is 64 µg/mL (≈ 81.9 µM).

Q: And the MIC (E. coli GC 4559; Mouse Serum pre-incubation)?
A: Its MIC is 2 µg/mL (≈ 2.56 µM).

Q: And the MIC (E. coli GC 4559; Water pre-incubation)?
A: Its MIC is > 64 µg/mL.

Q: What about the MIC (S. typhimurium GC 2172; Mouse Serum pre-incubation) of the same compound?
A: Its MIC is 4 µg/mL (≈ 5.12 µM).

Q: What about the MIC (S. typhimurium GC 2172; Water pre-incubation) of the same compound?
A: Its MIC is > 64 µg/mL.

Q: What about the MIC (S. aureus GC 6466; Mouse Serum pre-incubation) of the same compound?
A: The MIC was 0.5 µg/mL (≈ 0.64 µM).

Q: And the MIC (S. aureus GC 6466; Water pre-incubation)?
A: The MIC was 2 µg/mL (≈ 2.56 µM).

Q: What about the MIC (S. aureus GC 4536; Mouse Serum pre-incubation) of the same compound?
A: The MIC was 1 µg/mL (≈ 1.28 µM).

Q: And the MIC (S. aureus GC 4536; Water pre-incubation)?
A: Its MIC is 4 µg/mL (≈ 5.12 µM).

Q: And the MIC (S. aureus GC 2216; Mouse Serum pre-incubation)?
A: Its MIC is 0.5 µg/mL (≈ 0.64 µM).

Q: What about the MIC (S. aureus GC 2216; Water pre-incubation) of the same compound?
A: The MIC was 4 µg/mL (≈ 5.12 µM).

Q: And the MIC (E. faecalis GC 4555; Mouse Serum pre-incubation)?
A: Its MIC is 1 µg/mL (≈ 1.28 µM).

Q: What about the MIC (E. faecalis GC 4555; Water pre-incubation) of the same compound?
A: Its MIC is 8 µg/mL (≈ 10.2 µM).

Q: And the MIC (E. faecalis GC 2242; Mouse Serum pre-incubation)?
A: The MIC was 1 µg/mL (≈ 1.28 µM).

Q: And the MIC (E. faecalis GC 2242; Water pre-incubation)?
A: Its MIC is 4 µg/mL (≈ 5.12 µM).

Q: And the MIC (E. faecium GC 4556; Mouse Serum pre-incubation)?
A: The MIC was 1 µg/mL (≈ 1.28 µM).

Q: And the MIC (E. faecium GC 4556; Water pre-incubation)?
A: Its MIC is 4 µg/mL (≈ 5.12 µM).

Q: And the MIC (S. pneumoniae* GC 4465; Mouse Serum pre-incubation)?
A: The MIC was < 0.06 µg/mL.

Q: What about the MIC (S. pneumoniae* GC 4465; Water pre-incubation) of the same compound?
A: The MIC was 0.12 µg/mL (≈ 0.153 µM).

Q: What about the MIC (S. pneumoniae+ GC 4465; Mouse Serum pre-incubation) of the same compound?
A: The MIC was 2 µg/mL (≈ 2.56 µM).

Q: What about the MIC (S. pneumoniae+ GC 4465; Water pre-incubation) of the same compound?
A: The MIC was 4 µg/mL (≈ 5.12 µM).

Q: And the MIC (S. pyogenes GC 4563; Mouse Serum pre-incubation)?
A: Its MIC is 0.12 µg/mL (≈ 0.153 µM).

Q: And the MIC (S. pyogenes GC 4563; Water pre-incubation)?
A: The MIC was 0.25 µg/mL (≈ 0.32 µM).

Q: What about the MIC (S. agalactiae GC 4564; Mouse Serum pre-incubation) of the same compound?
A: Its MIC is 0.25 µg/mL (≈ 0.32 µM).

Q: And the MIC (S. agalactiae GC 4564; Water pre-incubation)?
A: The MIC was 0.5 µg/mL (≈ 0.64 µM).

Q: And the MIC (E. coli; 20 h, read-out: Range of MIC, E. coli (Mouse Serum))?
A: Its MIC is 0.5 to 2 µg/mL (≈ 0.64 to 2.56 µM).

Q: What about the MIC (E. coli; read-out: Minimum inhibitory concentration (MIC), E. coli (Human Serum)) of the same compound?
A: Its MIC is 8 to 32 µg/mL (≈ 10.2 to 40.9 µM).

Q: What about the MIC (E. coli; read-out: Minimum inhibitory concentration (MIC), E. coli (mouse serum)) of the same compound?
A: The MIC was 0.5 to 2 µg/mL (≈ 0.64 to 2.56 µM).

Q: What about the MIC (Staph.; MRSA, read-out: Minimum inhibitory concentration (MIC), Staph. (mouse serum)) of the same compound?
A: Its MIC is 0.5 to 2 µg/mL (≈ 0.64 to 2.56 µM).

Q: And the MIC (Staph.; MRSA, read-out: Minimum inhibitory concentration (MIC), Staph. (water))?
A: Its MIC is 2 to 16 µg/mL (≈ 2.56 to 20.5 µM).

Q: And the MIC (Staph.; MRSA, read-out: Range of MIC, Staph (Mouse Serum))?
A: The MIC was 0.5 to 2 µg/mL (≈ 0.64 to 2.56 µM).

Q: What about the MIC (Staph.; MRSA, read-out: Range of MIC, Staph (Water)) of the same compound?
A: The MIC was 2 to 16 µg/mL (≈ 2.56 to 20.5 µM).

Q: And the MIC (Staph.; read-out: Minimum inhibitory concentration (MIC), Staph (Human Serum))?
A: The MIC was 0.5 to 4 µg/mL (≈ 0.64 to 5.12 µM).

Q: And the MIC (Staph.; read-out: Minimum inhibitory concentration (MIC), Staph (Water))?
A: Its MIC is 2 to 8 µg/mL (≈ 2.56 to 10.2 µM).

Q: And the ED50 (Staph. aureus Smith; Staphylococcus aureus, in Mus musculus, po, read-out: ED50 Staph Smith SOD)?
A: Its ED50 is 11.6 mg/kg.

Q: And the ED50 (Staph. aureus Smith; iv, read-out: ED50 Staph Smith SIV)?
A: The ED50 was 0.39 mg/kg.

Source: patent US20070049564A1 (Wyeth, priority 2005, published 2007)
